Measured values from paper PMC6535718 (Journal of the American Chemical Society, 2019).
Read-outs that look alike come from different tables or passages of the source.

Tests used:
[1] = test system: P. aeruginosa; settings: cited from earlier work
[2] = test system: P. aeruginosa PAO1; test: Effect of analogs on the potency of fluoroquinolone antibiotics, strain PAO1; assay type: cell-based, Pseudomonas aeruginosa; settings: PAO1, ciprofloxacin 0.25 μg/mL, 18 h, M63 + 4 μM Fe
[3] = fluoroquinolone at the reported MIC, Figure 9 legend

Row | Structure (SMILES) | reported MIC [1] [µg/mL] | % survival relative to untreated control, ciprofloxacin only [2] | reported MIC [1, 3] [µg/mL]
1 | O=C(O)c1cn(C2CC2)c2cc(N3CCNCC3)c(F)cc2c1=O [ciprofloxacin] | 0.25 | approximately 10% | 
2 | C[C@H]1COc2c(N3CCN(C)CC3)c(F)cc3c(=O)c(C(=O)O)cn1c23 [levofloxacin] |  |  | 0.5
3 | CCn1cc(C(=O)O)c(=O)c2cc(F)c(N3CCNCC3)cc21 [norfloxacin] |  |  | 0.9
